Measured values reported in patent publication US20060235222A1, “Indole-derivative modulators of steroid hormone nuclear receptors” (ELI LILLY AND COMPANY, priority 2003, published 2006).

Legend:
glucocorticoid receptor = target: T1, glucocorticoid receptor (Homo sapiens, UniProt P04150); assay: Glucocorticoid Receptor Binding Assay (Method 1), [3H]-dexamethasone competition, A549 cell extract; conditions: 1.86 nM [3H]-dexamethasone, read-out: GR Ki (nM) Method 1
T1 construct: containing 50-200 ug of A549 cell extract and 1.86 nM; host or cells: A549 human lung epithelial cells
T1 sequence (P04150 1-777): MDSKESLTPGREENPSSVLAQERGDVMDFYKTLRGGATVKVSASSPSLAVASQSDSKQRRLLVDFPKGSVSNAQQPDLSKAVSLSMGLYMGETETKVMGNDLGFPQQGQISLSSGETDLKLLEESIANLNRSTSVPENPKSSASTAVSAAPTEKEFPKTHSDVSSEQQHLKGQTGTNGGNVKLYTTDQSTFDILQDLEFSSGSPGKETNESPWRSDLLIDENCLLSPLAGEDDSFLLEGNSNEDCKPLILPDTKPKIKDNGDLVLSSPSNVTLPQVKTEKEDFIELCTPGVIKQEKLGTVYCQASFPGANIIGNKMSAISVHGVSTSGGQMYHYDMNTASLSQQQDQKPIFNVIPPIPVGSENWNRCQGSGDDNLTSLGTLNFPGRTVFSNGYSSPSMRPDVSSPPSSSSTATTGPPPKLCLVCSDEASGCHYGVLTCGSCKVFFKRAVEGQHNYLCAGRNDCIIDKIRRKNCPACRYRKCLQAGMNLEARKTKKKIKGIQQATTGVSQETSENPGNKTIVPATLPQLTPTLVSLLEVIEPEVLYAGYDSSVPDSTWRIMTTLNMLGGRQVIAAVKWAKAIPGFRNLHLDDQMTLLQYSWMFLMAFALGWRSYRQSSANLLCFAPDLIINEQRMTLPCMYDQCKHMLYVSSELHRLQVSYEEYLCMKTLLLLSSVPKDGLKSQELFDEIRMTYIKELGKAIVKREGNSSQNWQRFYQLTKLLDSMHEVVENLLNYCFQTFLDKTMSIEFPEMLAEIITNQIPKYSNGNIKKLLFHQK
Description: Glucocorticoid Receptor Binding Assay (Method 1):
A549 human lung epithelial cells (ATCC) are grown at a scale where gram quantity cell pellets are obtained. Harvested cell pellets are washed twice in cold phosphate buffered saline, centrifuged, and resuspended in cold assay binding buffer. The assay binding buffer consists of 10% glycerol, 50 mM Tris-HCl (pH7.2), 75 mM sodium chloride, 1.5 mM magnesium chloride, 1.5 mM EDTA, and 10 mM sodium molybdate. Cell suspensions were lysed via sonication, centrifuged, and the “extract” supernatant is snap frozen and stored at −80 C until needed.
Incubations are carried out at 4 degrees Celsius for 16 hours. After incubation, 70 ul of 3× dextran-coated charcoal solution is added to each reaction, mixed, and incubated for 8 minutes at RT. 3×-dextran-coated charcoal solution consists of 250 ml assay binding buffer, 3.75 g Norit A charcoal (Sigma), and 1.25 g dextran T-70 (Amersham). Charcoal/unbound radioligand complexes are removed by centrifugation of the plate and 140 ul of supernatant from each well is transferred to another 96 well Optiplate (Packard Instruments). 200 ul of Microscint-20 scinillant (Packard Instruments) is added to each well and amount of receptor bound radioligand is determined using Packard Instruments TopCount instrument.

human MR = target: T2, human MR (Homo sapiens, UniProt P08235); assay: Mineralocorticoid Receptor Binding Assay (Method 1), [3H]-aldosterone competition; conditions: 0.5 nM [3H]-aldosterone, human MR expressed in Sf9 cells
T2 construct: The full length human MR gene is cloned from a human kidney or human brain cDNA library; inferred from own knowledge of the pAcHLT vector (N); made in house; host or cells: Sf9 insect cells (baculovirus)
T2 sequence (P08235 1-984): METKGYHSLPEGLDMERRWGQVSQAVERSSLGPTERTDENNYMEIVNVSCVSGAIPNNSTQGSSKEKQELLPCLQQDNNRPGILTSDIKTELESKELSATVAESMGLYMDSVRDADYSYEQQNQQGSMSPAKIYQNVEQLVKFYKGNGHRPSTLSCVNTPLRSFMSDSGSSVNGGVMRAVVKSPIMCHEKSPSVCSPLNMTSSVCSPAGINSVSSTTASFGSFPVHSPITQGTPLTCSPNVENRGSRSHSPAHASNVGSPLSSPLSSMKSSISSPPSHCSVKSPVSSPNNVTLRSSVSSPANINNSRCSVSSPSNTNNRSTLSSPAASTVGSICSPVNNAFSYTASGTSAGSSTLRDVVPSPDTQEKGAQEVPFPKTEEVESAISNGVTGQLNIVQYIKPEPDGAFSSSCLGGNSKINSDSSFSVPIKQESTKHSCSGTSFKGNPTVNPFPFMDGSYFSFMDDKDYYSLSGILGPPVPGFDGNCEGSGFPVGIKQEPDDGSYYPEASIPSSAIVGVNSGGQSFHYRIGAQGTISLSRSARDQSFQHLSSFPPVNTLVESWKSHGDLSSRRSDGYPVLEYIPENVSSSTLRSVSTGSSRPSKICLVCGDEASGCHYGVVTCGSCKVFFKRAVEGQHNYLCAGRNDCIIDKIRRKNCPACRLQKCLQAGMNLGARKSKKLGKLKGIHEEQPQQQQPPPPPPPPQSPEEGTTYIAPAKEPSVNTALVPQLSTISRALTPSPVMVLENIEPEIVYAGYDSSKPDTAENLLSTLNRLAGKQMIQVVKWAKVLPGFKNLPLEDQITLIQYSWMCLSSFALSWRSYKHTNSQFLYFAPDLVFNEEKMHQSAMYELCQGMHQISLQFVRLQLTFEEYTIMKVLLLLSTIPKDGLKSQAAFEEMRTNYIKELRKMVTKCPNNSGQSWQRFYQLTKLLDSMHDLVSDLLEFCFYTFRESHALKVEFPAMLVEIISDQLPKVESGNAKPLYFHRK
Description: Mineralocorticoid Receptor Binding Assay (Method 1):
The full length human MR gene is cloned from a human kidney or human brain cDNA library. […] The PCR reaction is performed in a final volume of 50 μl containing about 1 μl of a 50× stock solution of polymerase; about 1 μl of a 50× stock solution of dNTP; about 5 μl of an appropriate PCR buffer; about 1 μl of each primer; about 5 μl of a H. kidney or H. brain cDNA library; and about 36 μl of water. The reaction is allowed to denature for about 30 seconds at 95 degrees Celsius, anneal for about 30 seconds at 55 degrees Celsius, and extend for about 5 minutes at 72 degrees Celsius, the sequence being repeated for a total of about 35 cycles. […] To extract the cDNA product from the agarose gel, the QIAEX II Gel Extraction protocol (QIAGEN, Inc.) is employed according to the manufacturer's instructions. Following extraction, the MR cDNA is cloned into an appropriate cloning vector (Zero Blunt TOPO PCR Cloning Kit (Invitrogen, Inc.) and a pAcHLT-baculovirus transfer vector (B.D./Pharminogen), then expressed in SF9 insect cells, essentially according to manufacturer's instructions. Sf9 cells are grown at a scale where gram quantity cell pellets are obtained for subsequent use in the MR binding assay. Harvested cell pellets are lysed by repeated freeze-thaw cycles (about 4) in a suitable lysis buffer then centrifuged at about 1×10^3 G (with the supernatant being saved for future assays).
MR binding assays are performed in a final total volume of about 250 μl containing about 20-25 μg of protein and 0.5 nM of [^3H]-aldosterone plus varying concentrations of test compound or vehicle. The assay binding buffer consists of 30 mM sodium molybdate, 30 mM of TRIS-HCl, 5 mM sodium phosphate, 5 mM sodium pyrophosphate, and about 10% glycerol, pH=7.5.
Incubations are carried out at 4 degrees Celsius with shaking for about 16 hours. 200 μl aliquots of each incubation are filtered onto Millipore HA 0.45 micron 96-well filter plates, pre-moistened with cold 30 mM TRIS-HCl. The filter plates are suctioned dry with vacuum and immediately washed 3× with cold 30 mM TRIS-HCl. The plates are then punched out and the amount of receptor-ligand complex is determined by liquid scintillation counting using 4 ml of Ready Protein Plus™ liquid scintillation cocktail.

SMILES: CCCC(C)(c1ccc(OC(F)(F)F)cc1)c1c[nH]c2c(NS(C)(=O)=O)cccc12 (stereo not shown) [Example 43]
- Ki (glucocorticoid receptor): < 1000 nM
- Ki (human MR): < 500 nM

SMILES: CC(C)(c1ccc(F)cc1)c1c[nH]c2c(NS(C)(=O)=O)cccc12 [Example 76, N-{3-[1-(4-Fluoro-phenyl)-1-methyl-ethyl]-1H-indol-7-yl}-methanesulfonamide]
- Ki (glucocorticoid receptor): < 500 nM
- Ki (human MR): < 500 nM

SMILES: CCC(C)(c1ccc(F)cc1)c1c[nH]c2c(NS(C)(=O)=O)cccc12 (stereo not shown) [Example 73, N-{3-[1-(4-Fluoro-phenyl)-1-methyl-propyl]-1H-indol-7-yl}-methanesulfonamide]
- Ki (glucocorticoid receptor): < 500 nM
- Ki (human MR): < 500 nM

SMILES: CCC(CC)(c1ccc(F)cc1)c1c[nH]c2c([N+](=O)[O-])cccc12 [Example 75, 3-[1-Ethyl-1-(4-fluoro-phenyl)-propyl]-7-nitro-1H-indole]
- Ki (glucocorticoid receptor): < 500 nM
- Ki (human MR): < 500 nM

SMILES: CC(C)(c1ccc(-c2ccccc2)cc1)c1c[nH]c2c(NS(C)(=O)=O)cccc12 [Example 39, N-[3-(1-Biphenyl-4-yl-1-methyl-ethyl)-1H-indol-7-yl]-methanesulfonamide]
- Ki (glucocorticoid receptor): < 1000 nM
- Ki (human MR): < 500 nM

SMILES: CCC(CC)(c1ccc(OCc2ccccc2)cc1)c1c[nH]c2c(NS(C)(=O)=O)cccc12 [Example 17, N-{3-[1-(4-Benzyloxy-phenyl)-1-ethyl-propyl]-1H-indol-7-yl}-methanesulfonamide]
- Ki (glucocorticoid receptor): < 500 nM
- Ki (human MR): < 500 nM

SMILES: CCC(CC)(c1ccc(F)c(F)c1)c1c[nH]c2c(NS(C)(=O)=O)cccc12 [Example 64, N-{3-[1-(3,4-Difluoro-phenyl)-1-ethyl-propyl]-1H-indol-7-yl}-methanesulfonamide]
- Ki (glucocorticoid receptor): < 500 nM
- Ki (human MR): < 500 nM

SMILES: CCC(C)(c1ccc(C)cc1)c1c[nH]c2c(NS(C)(=O)=O)cccc12 (stereo not shown) [Example 65, N-[3-(1-Methyl-1-p-tolyl-propyl)-1H-indol-7-yl]-methanesulfonamide]
- Ki (glucocorticoid receptor): < 500 nM
- Ki (human MR): < 500 nM

SMILES: CCC(CC)(c1ccccc1C)c1c[nH]c2c(NS(C)(=O)=O)cccc12 [Example 67, N-[3-(1-Ethyl-1-o-tolyl-propyl)-1H-indol-7-yl]-methanesulfonamide]
- Ki (glucocorticoid receptor): < 500 nM
- Ki (human MR): < 500 nM

SMILES: CCc1ccc(C(CC)(CC)c2c[nH]c3c(NS(C)(=O)=O)cccc23)cc1 [Example 66, N-{3-[1-Ethyl-1-(4-ethyl-phenyl)-propyl]-1H-indol-7-yl}-methanesulfonamide]
- Ki (glucocorticoid receptor): < 500 nM
- Ki (human MR): < 500 nM

SMILES: CCCC(C)(c1ccc(F)cc1)c1c[nH]c2c(NS(C)(=O)=O)cccc12 (stereo not shown) [Example 7, N-{3-[1-(4-Fluoro-phenyl)-1-methyl-butyl]-1H-indol-7-yl}-methanesulfonamide]
- Ki (glucocorticoid receptor): < 500 nM
- Ki (human MR): < 500 nM

SMILES: CC(C)(c1cccc(-c2ccc(F)cc2)c1)c1c[nH]c2c(NS(C)(=O)=O)cccc12 [Example 36, N-{3-[1-(4′-Fluoro-biphenyl-3-yl)-1-methyl-ethyl]-1H-indol-7-yl}-methanesulfonamide]
- Ki (glucocorticoid receptor): < 10000 nM
- Ki (human MR): < 500 nM

SMILES: CCC(CC)(c1ccc(F)cc1)c1c[nH]c2c(N)cccc12 [Example 79, 3-[1-Ethyl-1-(4-fluoro-phenyl)-propyl]-1H-indol-7-ylamine]
- Ki (glucocorticoid receptor): < 1000 nM
- Ki (human MR): < 500 nM

SMILES: Cc1cccc2c(C3(c4ccc(F)cc4)CCCCC3)c[nH]c12 [Example 32, 3-[1-(4-Fluoro-phenyl)-cyclohexyl]-7-methyl-1H-indole]
- Ki (glucocorticoid receptor): < 10000 nM
- Ki (human MR): < 500 nM

SMILES: CS(=O)(=O)Nc1cccc2c(C3(c4ccccc4)CCOCC3)c[nH]c12 [Example 33, N-[3-(4-Phenyl-tetrahydro-pyran-4-yl)-1H-indol-7-yl]-methanesulfonamide]
- Ki (glucocorticoid receptor): < 500 nM
- Ki (human MR): < 500 nM

SMILES: CCCC(CCC)(c1ccc(OC)cc1)c1c[nH]c2c(NS(C)(=O)=O)cccc12 [Example 69, N-{3-[1-(4-Methoxy-phenyl)-1-propyl-butyl]-1H-indol-7-yl}-methanesulfonamide]
- Ki (glucocorticoid receptor): < 500 nM
- Ki (human MR): < 500 nM

SMILES: CCC(CC)(c1cc2cccc(OC)c2o1)c1c[nH]c2c(NS(C)(=O)=O)cccc12 [Example 4, N-{3-[1-Ethyl-1-(7-methoxy-benzofuran-2-yl)-propyl]-1H-indol-7-yl}-methanesulfonamide]
- Ki (glucocorticoid receptor): < 500 nM
- Ki (human MR): < 500 nM

SMILES: CS(=O)(=O)Nc1cccc2c(C3(c4ccccc4)CCCC3)c[nH]c12 [Example 21, N-[3-(1-Phenyl-cyclopentyl)-1H-indole-7-yl]-methanesulfonamide]
- Ki (glucocorticoid receptor): < 500 nM
- Ki (human MR): < 500 nM

SMILES: CCc1cccc2c(C(C)(c3ccc(O)cc3)c3ccc(F)cc3)c[nH]c12 (stereo not shown) [Example 27, 4-[1-(7-Ethyl-1H-indole-3-yl)-1-(4-fluoro-phenyl)-ethyl]-phenol]
- Ki (glucocorticoid receptor): < 1000 nM
- Ki (human MR): < 500 nM

SMILES: CCC(CC)(c1ccc(C)cc1C)c1c[nH]c2c(NS(C)(=O)=O)cccc12 [Example 60, N-{3-[1-(2,4-Dimethyl-phenyl)-1-ethyl-propyl]-1H-indol-7-yl}-methanesulfonamide]
- Ki (glucocorticoid receptor): < 500 nM
- Ki (human MR): < 500 nM
